From publication PMC6197257 (Scientific Reports, 2018)
Where two headings read alike, the source gives them in different places.

Assays:
OAT3 = target: T1, OAT3 (Homo sapiens, UniProt Q8TCC7); assay: uptake by MDCK II cells stably expressing OAT3; type: in vitro ADME; settings: pooled plasma of male EHBRs (79 µM compound 1), pH 5.5, 37 °C, 15 min
T1 construct: expressed in transfected cells
T1 sequence (Q8TCC7 1-542): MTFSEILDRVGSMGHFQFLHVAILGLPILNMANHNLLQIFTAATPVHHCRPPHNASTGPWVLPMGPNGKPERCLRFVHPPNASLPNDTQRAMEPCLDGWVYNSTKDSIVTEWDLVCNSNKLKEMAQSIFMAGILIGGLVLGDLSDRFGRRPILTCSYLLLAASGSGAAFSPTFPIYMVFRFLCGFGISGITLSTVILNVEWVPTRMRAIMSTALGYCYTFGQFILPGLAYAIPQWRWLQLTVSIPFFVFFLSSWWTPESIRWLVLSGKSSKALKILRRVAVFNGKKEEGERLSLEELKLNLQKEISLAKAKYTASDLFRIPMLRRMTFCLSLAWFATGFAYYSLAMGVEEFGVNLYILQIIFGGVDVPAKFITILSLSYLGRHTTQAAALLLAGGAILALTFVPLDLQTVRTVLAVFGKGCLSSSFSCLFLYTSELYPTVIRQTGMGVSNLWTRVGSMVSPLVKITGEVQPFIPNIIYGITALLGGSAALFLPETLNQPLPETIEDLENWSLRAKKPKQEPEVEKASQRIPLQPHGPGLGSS
Description: (§1) MDCKII cells were cultured in Dulbecco’s modified Eagle’s medium containing 10% FBS, 100 U/ml penicillin, and 100 µg/ml streptomycin at 37 °C in 5% CO2. Plasmids carrying the cDNAs encoding human organic anion transporter (OAT) 1 and 3 were prepared using the pCI-neo mammalian expression vector, as described previously. Using the plasmids, MDCKII cells stably expressing OAT1 and 3 were prepared as described previously, and tested for their functional expressions by evaluating the transports of [^3H]p-aminohippurate and [^3H]estrone sulfate, respectively, as probe substrates.
(§2) For the transport assay, the cells were seeded in 24-well plates (1 × 10^5 cells/well), and incubated for 24 h. The cells were pre-incubated for 15 min at 37 °C with 0.25 ml of the incubation medium described above. Two ml of pooled female or male EHBR plasma samples was lyophilized, and dissolved in 2 ml of 10 mM MES (pH 5.5). The cells were then incubated further at 37 °C for 15 min with 0.1 ml of pooled female or male EHBR plasma samples. The surface of the cells was washed 3 times with 0.5 ml of ice-cold PBS, and then the contents were extracted with 0.2 ml of ethanol. The cell residues were dissolved by 0.1 ml of 1 M NaOH, and after neutralization by adding 0.1 ml of 1 M HCl, the concentrations of protein were measured as mentioned above.

[1] = concentrations in pooled plasma of EHBRs 12 h after oral GA (200 mg/kg); type: in vivo; settings: Eisai Hyperbilirubinemia rats (EHBR), rat
Description: Three female and three male EHBRs (9-week-old, respectively) were injected with urethane (1 g/kg, i.p.), and orally treated with an aqueous GA aqueous suspension (200 mg/kg in 1% CMC). Twelve h after the treatment, blood was collected from the abdominal vena cava, and the plasma samples of each sex rat were pooled.
LC-ESI(+)MS/MS analysis was conducted at the following conditions: column, Scherzo SM-C18 (3 μm, 3 mm i.d. ×100 mm, Imtakt, Kyoto, Japan); mobile phase, (A) 5 mM AcNH4, (B) 125 mM AcNH4/acetonitrole 1:4, at a flow rate of 0.3 ml/min, with the following gradient profile: A:B = 50:50–0:100 (0–3 min) and 0:100 (3–10 min); compound 1 (5.8 min), astragaloside IV (3.0 min), GA (8.7 min); the transitions monitored were the same as described in the previous section. Linear regressions over the concentration range 0.08–2 µM for compound 1 and 3.2 nM–2 µM for GA were examined using the peak-area ratio of the compounds to their internal standards and the least-squares method (r^2 > 0.98).

OAT1 = target: T2, OAT1 (Homo sapiens, UniProt Q4U2R8); assay: uptake by MDCK II cells stably expressing OAT1; type: in vitro ADME; settings: pooled plasma of male EHBRs (79 µM compound 1), pH 5.5, 37 °C, 15 min
T2 construct: expressed in transfected cells
T2 sequence (Q4U2R8 1-563): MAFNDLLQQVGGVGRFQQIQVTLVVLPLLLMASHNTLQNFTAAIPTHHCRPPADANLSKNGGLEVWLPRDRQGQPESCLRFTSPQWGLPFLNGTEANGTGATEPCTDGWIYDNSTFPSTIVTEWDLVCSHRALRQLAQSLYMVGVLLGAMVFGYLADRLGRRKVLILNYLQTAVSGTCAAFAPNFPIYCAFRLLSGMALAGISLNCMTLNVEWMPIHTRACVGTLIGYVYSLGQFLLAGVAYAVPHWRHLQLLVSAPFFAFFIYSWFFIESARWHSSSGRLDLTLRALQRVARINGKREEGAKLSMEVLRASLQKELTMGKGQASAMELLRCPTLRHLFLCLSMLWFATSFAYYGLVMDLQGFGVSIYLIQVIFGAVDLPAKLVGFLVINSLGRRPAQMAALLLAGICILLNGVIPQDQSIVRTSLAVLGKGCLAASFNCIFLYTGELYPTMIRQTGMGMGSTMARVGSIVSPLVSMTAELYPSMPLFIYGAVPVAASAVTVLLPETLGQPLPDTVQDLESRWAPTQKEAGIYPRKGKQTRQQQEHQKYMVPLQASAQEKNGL
Description: as §1, §2

[2] = pharmacokinetics in SD rats orally treated with GA (200 mg/kg), LC-MS/MS; type: in vivo, Sprague Dawley (SD) rats; settings: female SD rats, GA 200 mg/kg oral, over 12 h
Description: Female SD rats or EHBRs (9-week-old) were anesthetized by an intraperitoneal (i.p.) injection of urethane (1 g/kg) and their jugular veins were exposed. […] Aliquots (10 µl) of plasma or urine were mixed with 20 µl of subtilisin (0.91 U/ml), incubated at 37 °C for 30 min, followed by the addition of 70 µl of astragalloside IV solution (1 µg/ml in ethanol containing 0.5% formic acid), and kept at −20 °C for 30 min.

uptake by cells expressing OAT3 compared with mock cells (OAT3): higher than that by mock cells
concentration at 12 h ([1]; female, read-out: concentration in pooled plasma, female EHBRs): 15 µM
concentration at 12 h ([1]; male, read-out: concentration in pooled plasma, male EHBRs): 79 µM
uptake by cells expressing OAT1 compared with mock cells (OAT1): higher than that by mock cells
detection in plasma of SD rats [2]: not detected
urinary elimination in SD rats [2]: not detected
SMILES: CC1(C(=O)OC2OC(C(=O)O)C(O)C(O)C2O)CC(O)C2(C)CCC3(C)C(=CC(=O)C4C5(C)CCC(OS(=O)(=O)O)C(C)(C)C5CCC43C)C2C1 (stereo not drawn) [Compound 1, 22α-hydroxy-18β-glycyrrhetyl-3-O-sulfate-30-glucuronide]
